Experiments:
[1] = biological target: T1, p53 Y220C mutant protein (amino acid residues 94-293) (Homo sapiens, UniProt P04637, Y220C); assay: Surface Plasmon Resonance (SPR) assay, Kd_kinetic; type: binding; conditions: SPR; p53 Y220C; read-out: SPR P53 Y220C KD kinetic
T1 construct: p53 Y220C mutant protein (amino acid residues 94-293)
In short: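 Temperature held at 16 or 20 °C during Biacore 8K runs. Buffer: 50 mM Tris, pH 7.5, 100 mM NaCl, 1 mM DTT, 0.01% Brij35, 0.05% Tween-20, 1% DMSO.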

[2] = biological target: T1, p53 Y220C mutant protein (amino acid residues 94-293); assay: Thermal Shift Assay (TSA), dTM; type: binding; conditions: p53 Y220C, read-out: TSA P53 Y220C dTM; for ΔTm at 10 µM: 10 uM compound; for ΔTm at 100 µM: 100 uM compound
In short: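 5 μM p53 Y220C (residues 94-293) incubated 3 h at 20 °C with 10 μM or 100 μM compound in 20 mM HEPES pH 7.4, 100 mM NaCl, 0.01% Pluronic F-127, 1% DMSO plus Sypro Orange. Melt from 30 to 50 °C at 0.03 °C/s; TM from Boltzmann two-state fit.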

p53 Y220C = p53 Y220C (Homo sapiens, UniProt P04637, Y220C); assay: Luciferase Reporter Assay (Luc), p53 response element, NClH1299 cells with inducible p53 Y220C; type: cell-based; conditions: luciferase reporter, NClH1299 inducible p53 Y220C, 6 hour; for AC50: read-out: Luc P53 Y220C AC50
In short: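 H1299 cells induced with 0.5 ug/mL doxycycline for 24 hours, then exposed to compound for 6 hours. p53 response-element luciferase read by One-Glo luminescence after 5 min shaking at room temperature.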

NUGC3 p53 Y220C = assay: Cell Proliferation Assay (CellTiter-Glo, CTG), NUGC3 p53 Y220C; type: cell-based; conditions: Homo sapiens, NUGC-3, 120 h, NUGC3 cells, 5 days, CellTiter-Glo
In short: (§1)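 NClH1299 lines stably transduced with Tet-inducible p53 Y220C or R273H, plus NUGC3, were treated with compound for 5 days at 250-500 cells/well. IC50 derived from CellTiter-Glo luminescent signal after 10 min room-temperature incubation.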

H1299 p53 Y220C = assay: Cell Proliferation Assay (CellTiter-Glo, CTG), H1299 p53 Y220C (NClH1299-inducible p53 Y220C); type: cell-based; conditions: Homo sapiens, NCI-H1299, 120 h, NClH1299-inducible p53 Y220C cells, 5 days, CellTiter-Glo
In short: as §1

H1299 p53 R273H = assay: Cell Proliferation Assay (CellTiter-Glo, CTG), H1299 p53 R273H (NClH1299-inducible p53 R273H); type: cell-based; conditions: Homo sapiens, NCI-H1299, 120 h, NClH1299-inducible p53 R273H cells, 5 days, CellTiter-Glo
In short: as §1

Row | Kd [1] | ΔTm at 10 µM [2] | ΔTm at 100 µM [2] | AC50 (p53 Y220C) | Emax (p53 Y220C) | IC50 (H1299 p53 Y220C) | IC50 (H1299 p53 R273H) | Structure (SMILES) | IC50 (NUGC3 p53 Y220C)
1 | < 10 nM | ≥ 10 °C | ≥ 10 °C | < 750 nM | 80 to 90% | < 750 nM | 5000 to 8000 nM | CNC(=O)c1ccc(OC)c(NCC#Cc2nn3c(N[C@@H]4CCN(C)C[C@@H]4F)cccc3c2SC(F)(F)F)c1 [Example 231] | < 750 nM
2 | < 10 nM | ≥ 10 °C |  | < 750 nM | 80 to 90% | < 750 nM | 8000 to 10000 nM | COc1cc(C(N)=O)ccc1NCC#Cc1nn2c(N[C@@H]3CCN(C)C[C@@H]3F)cccc2c1SC(F)(F)F [Example 233] | < 750 nM
3 | < 10 nM | ≥ 10 °C |  | < 750 nM | 80 to 90% | < 750 nM | 8000 to 10000 nM | CNC(=O)c1ccc(OC)c(NCC#Cc2nn3c(N[C@@H]4CCN(C)C[C@@H]4F)cccc3c2SC(F)(F)F)n1 [Example 234] | < 750 nM
4 | < 10 nM | ≥ 10 °C | ≥ 10 °C | < 750 nM | 80 to 90% | < 750 nM | 5000 to 8000 nM | CNC(=O)c1ccc(OC)c(NCC#Cc2nn3c(N[C@@H]4CCNC[C@@H]4F)cccc3c2SC(F)(F)F)c1 [Example 236] | < 750 nM
5 | < 10 nM | ≥ 10 °C |  | < 750 nM | 70 to 80% | < 750 nM | 5000 to 8000 nM | CNC(=O)c1ccc(OC)c(NCC#Cc2nn3c(N[C@@H]4CCNC[C@@H]4F)cccc3c2SC(F)(F)F)n1 [Example 237] | < 750 nM
6 | < 10 nM | ≥ 10 °C |  | < 750 nM | 80 to 90% | < 750 nM | 5000 to 8000 nM | COc1cc(S(C)(=O)=O)ccc1NCC#Cc1nn2c(N[C@@H]3CCNC[C@@H]3F)cccc2c1SC(F)(F)F [Example 238] | < 750 nM
7 | < 10 nM | ≥ 10 °C | ≥ 10 °C | < 750 nM | > 90% | < 750 nM | 8000 to 10000 nM | CNC(=O)c1ccc(NCC#Cc2nc3c(N[C@@H]4CCN(C)C[C@@H]4F)cccn3c2SC(F)(F)F)c(C)c1 [Example 239] | < 750 nM
8 | 10 to 100 nM | 5 to 10 °C | ≥ 10 °C | < 750 nM | 80 to 90% | < 750 nM | 5000 to 8000 nM | CNC(=O)c1ccc(NCC#Cc2nc3c(NC4CCOCC4)cccn3c2SC(F)(F)F)c(OC)c1 [Example 241] | < 750 nM
9 | < 10 nM | 5 to 10 °C | ≥ 10 °C | 750 to 1500 nM | 80 to 90% | < 750 nM | 5000 to 8000 nM | CNC(=O)c1ccc(NCC#Cc2nc3c(N[C@@H]4CCN(C)C4)cccn3c2SC(F)(F)F)c(OC)c1 [Example 242] | < 750 nM
10 | < 10 nM | 5 to 10 °C | ≥ 10 °C | 1500 to 3000 nM | 70 to 80% | 750 to 1500 nM | ≥ 10000 nM | CNC(=O)c1ccc(NCC#Cc2nc3c(N[C@H]4CCN(C)C4)cccn3c2SC(F)(F)F)c(OC)c1 [Example 243] | 750 to 1500 nM
11 | < 10 nM | 5 to 10 °C | ≥ 10 °C | 1500 to 3000 nM | < 70% | 1500 to 3000 nM | 8000 to 10000 nM | CNC(=O)c1ccc(OC)c(NCC#Cc2nc3c(N[C@H]4C[C@@H]5CC[C@H]4N5)cccn3c2SC(F)(F)F)c1 [Example 245] | < 750 nM
12 | < 10 nM | ≥ 10 °C |  | < 750 nM | 80 to 90% | < 750 nM | 5000 to 8000 nM | CNC(=O)c1ccc(OC)c(NCC#Cc2nn3c(N[C@@H]4CNC[C@@H]4F)cccc3c2SC(F)(F)F)c1 [Example 250] | < 750 nM
13 | < 10 nM | ≥ 10 °C |  | < 750 nM | 80 to 90% | < 750 nM | ≥ 10000 nM | CNC(=O)c1ccc(OC)c(NCC#Cc2nn3c(N[C@@H]4CN(C)C[C@@H]4F)cccc3c2SC(F)(F)F)c1 [Example 252] | < 750 nM
14 | < 10 nM | ≥ 10 °C |  | < 750 nM | 80 to 90% | < 750 nM | ≥ 10000 nM | CNC(=O)c1ccc(OC)c(NCC#Cc2nn3c(N[C@@H]4CN(C)C[C@@H]4F)cccc3c2SC(F)(F)F)n1 [Example 253] | < 750 nM
15 | < 10 nM | ≥ 10 °C |  | < 750 nM | 80 to 90% | < 750 nM | ≥ 10000 nM | CNC(=O)c1cnc(OC)c(NCC#Cc2nc3c(N[C@@H]4CCN(C)C[C@@H]4F)nccn3c2SC(F)(F)F)c1 [Example 254] | < 750 nM
16 | < 10 nM | ≥ 10 °C | ≥ 10 °C | < 750 nM | > 90% | < 750 nM | 8000 to 10000 nM | CNC(=O)c1cnc(OC)c(NCC#Cc2cc3c(N[C@@H]4CCN(C)C[C@@H]4F)nccn3c2SC(F)(F)F)c1 [Example 255] | < 750 nM
17 | < 10 nM | ≥ 10 °C |  | < 750 nM | > 90% | < 750 nM | 5000 to 8000 nM | CNC(=O)c1cnc(OC)c(NCC#Cc2cc3c(N[C@@H]4CCN(C)C[C@@H]4F)cccn3c2SC(F)(F)F)c1 [Example 256] | < 750 nM
18 | < 10 nM | ≥ 10 °C |  | < 750 nM | 80 to 90% | < 750 nM | ≥ 10000 nM | COc1cc(P(C)(C)=O)ccc1NCC#Cc1cc2c(N[C@@H]3CCN(C)C[C@@H]3F)nccn2c1SC(F)F [Example 257] | < 750 nM
19 | < 10 nM | ≥ 10 °C |  | < 750 nM | 70 to 80% | < 750 nM | ≥ 10000 nM | CNC(=O)c1cnc(OC)c(NCC#Cc2nc3c(N[C@@H]4CCNC[C@@H]4F)cccn3c2SC(F)(F)F)c1 [Example 258] | < 750 nM
20 | < 10 nM | ≥ 10 °C |  | < 750 nM | 80 to 90% | < 750 nM | 8000 to 10000 nM | CNC(=O)c1cnc(OC)c(NCC#Cc2nn3c(N[C@@H]4CCN(C)C[C@@H]4F)cccc3c2SC(F)(F)F)c1 [Example 260] | < 750 nM
21 | < 10 nM | 5 to 10 °C | ≥ 10 °C | 1500 to 3000 nM | 70 to 80% | 750 to 1500 nM | ≥ 10000 nM | CNC(=O)c1cnc(OC)c(NCC#Cc2nc3c(N[C@@H]4CCN(C)C[C@@H]4F)cccn3c2CC(F)(F)F)c1 [Example 261] | < 750 nM
22 | < 10 nM | ≥ 10 °C | ≥ 10 °C | < 750 nM | 70 to 80% | < 750 nM | 8000 to 10000 nM | CNC(=O)c1cnc(OC)c(NCC#Cc2nc3c(N[C@@H]4C[C@H]5CC[C@H](N5)[C@@H]4F)cccn3c2SC(F)(F)F)c1 [Example 264] | < 750 nM
23 | < 10 nM | ≥ 10 °C | ≥ 10 °C | < 750 nM | > 90% | < 750 nM | < 5000 nM | CNC(=O)c1cnc(OC)c(NCC#Cc2nn3c(N[C@@H]4CCN(C)C[C@@H]4F)cccc3c2SC(F)F)c1 [Example 268] | < 750 nM
24 | < 10 nM | ≥ 10 °C | 5 to 10 °C | < 750 nM | 70 to 80% | < 750 nM | < 5000 nM | CNC(=O)c1ccc(OC)c(NCC#Cc2nn3c(N[C@@H]4C[C@H]5CC[C@H](N5)[C@@H]4F)cccc3c2SC(F)(F)F)c1 [Example 269] | < 750 nM
25 | < 10 nM | ≥ 10 °C |  | < 750 nM | 80 to 90% | < 750 nM | < 5000 nM | CNC(=O)c1cnc(OC)c(NCC#Cc2nn3c(N[C@@H]4CCNC[C@@H]4F)cccc3c2SC(F)(F)F)c1 [Example 270] | < 750 nM
26 | < 10 nM | ≥ 10 °C |  | < 750 nM | > 90% | < 750 nM | ≥ 10000 nM | CNC(=O)c1cc(NCC#Cc2nc3c(N[C@@H]4CCN(C)C[C@@H]4F)cccn3c2SC(F)(F)F)c2nccn2c1 [Example 277] | < 750 nM

Source: patent publication US20260374766A1, “METHODS FOR TREATING CANCER” (Antares Therapeutics, Inc., priority 2022, published 2026)
